Consider ten compounds from patent publication US20110144014A1, “CYTOKINE RECEPTOR MODULATORS AND USES THEREOF” (CENTRE HOSPITALIER UNIVERSITAIRE SAINTE-JUSTINE, priority 2005, published 2011).

Where a SMILES comes first, the peptide text is derived from it. Where no end group is shown, it is not given here. [ ]: non-standard residue; d: D form.

Experiment [1] addresses T1, IGF-1R (Homo sapiens, UniProt P08069). In words: IGF-1 induced proliferation of A549 carcinoma cells (3H-thymidine). It counts as cell-based. The arrangement: endogenous in cells; host or cells: A549. Here is the method:
The proliferation induced by IGF-1 was measured in A549 carcinoma cells in the presence of peptides APG201; APG202 and APG204 and of IGF-1 (10 ng/ml-FIG. 8A) and (1 ng/ml-FIG. 8B) pursuant to the incorporated tritiated thymidine method. The cells were preincubated at 37° C. with the different peptides at different concentrations, namely 10^−7, 10^−6 and 10^−5M. The cells were then incubated with IGF-1 (10 ng/ml or 1 ng/ml) for 24 hours and contacted with ^3H-Thymidine for 24 hours, washed, and lysed. Radioactivity levels were measured with a scintillation counter.
Target sequence in this assay (P08069 31-736 limits assumed): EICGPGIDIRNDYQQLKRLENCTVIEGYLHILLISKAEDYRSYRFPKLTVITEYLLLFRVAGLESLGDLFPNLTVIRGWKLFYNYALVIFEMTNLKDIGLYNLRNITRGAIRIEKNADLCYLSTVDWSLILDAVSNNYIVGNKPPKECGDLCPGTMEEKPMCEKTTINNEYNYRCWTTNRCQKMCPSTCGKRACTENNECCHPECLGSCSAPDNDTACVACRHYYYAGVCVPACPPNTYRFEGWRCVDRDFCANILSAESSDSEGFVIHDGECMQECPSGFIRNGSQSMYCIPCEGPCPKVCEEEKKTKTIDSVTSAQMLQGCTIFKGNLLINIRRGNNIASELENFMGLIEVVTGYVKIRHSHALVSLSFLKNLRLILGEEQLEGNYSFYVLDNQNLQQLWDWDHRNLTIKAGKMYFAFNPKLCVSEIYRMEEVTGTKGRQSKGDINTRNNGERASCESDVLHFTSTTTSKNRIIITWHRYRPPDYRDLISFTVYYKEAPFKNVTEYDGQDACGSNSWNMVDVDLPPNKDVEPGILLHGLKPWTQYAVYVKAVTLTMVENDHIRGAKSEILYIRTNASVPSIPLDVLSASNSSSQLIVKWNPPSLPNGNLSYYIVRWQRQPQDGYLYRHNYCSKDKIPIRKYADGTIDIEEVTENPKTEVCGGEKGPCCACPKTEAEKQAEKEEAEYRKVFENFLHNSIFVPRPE
Target sequence in this assay (P08069 741-1367 limits assumed): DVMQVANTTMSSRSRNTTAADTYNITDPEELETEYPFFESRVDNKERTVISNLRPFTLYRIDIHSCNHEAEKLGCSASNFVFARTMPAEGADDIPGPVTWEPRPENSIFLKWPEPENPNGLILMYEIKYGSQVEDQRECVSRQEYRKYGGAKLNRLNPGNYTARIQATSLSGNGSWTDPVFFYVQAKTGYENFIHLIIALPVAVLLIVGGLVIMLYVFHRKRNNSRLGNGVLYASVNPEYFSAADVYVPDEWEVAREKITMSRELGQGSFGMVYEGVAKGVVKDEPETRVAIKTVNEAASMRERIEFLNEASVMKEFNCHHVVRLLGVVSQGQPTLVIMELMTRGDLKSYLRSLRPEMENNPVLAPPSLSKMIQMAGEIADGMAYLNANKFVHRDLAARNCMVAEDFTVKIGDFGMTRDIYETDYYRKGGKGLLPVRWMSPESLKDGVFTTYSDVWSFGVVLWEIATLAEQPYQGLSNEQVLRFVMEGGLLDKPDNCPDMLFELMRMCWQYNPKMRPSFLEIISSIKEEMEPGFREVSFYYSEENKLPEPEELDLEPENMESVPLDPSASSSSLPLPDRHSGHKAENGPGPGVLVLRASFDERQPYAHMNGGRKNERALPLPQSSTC

For experiment [2], the target named is T1, IGF-1R. In words: IGF-1 induced proliferation of MCF-7 breast carcinoma cells (3H-thymidine). It counts as cell-based. As to conditions: for Emax / inhibition: MCF7; for inhibition: read-out: efficacy, inhibition of MCF-7 proliferation. The arrangement: MCF-7 breast carcinoma cells; endogenous in cells; host or cells: MCF-7. Here is the method: We also tested the effect IGF-1R antagonist peptides on IGF-1 induced proliferation in other cancer cell types (MCF-7 breast carcinoma cells, HepG2 hepatocarcinoma cells, and MDA-MB-231 breast adenocarcinoma cells). Different cancer cells were pre-incubated (45 min.) with different concentrations of peptides prior to stimulation with IGF-1 (50 ng/ml) (37° C.) for 24 hours; fetal calf serum was omitted 24 hours prior to stimulation with IGF-1 to avoid proliferative effects by other mitotic agents. ^3H-thymidine (1 μCi/ml) was then added for 24 hours, after which cells were washed three times with 5% cold TCA and lysed with 0.1N NaOH/0.1% Triton X-100. Radioactivity was measured with a scintillation counter. Experiments were repeated 3 times in duplicates (FIG. 15). […]
Target sequence in this assay (P08069 31-736 limits assumed): as the sequence (P08069 31-736 limits assumed) above
Target sequence in this assay (P08069 741-1367 limits assumed): as the sequence (P08069 741-1367 limits assumed) above

In experiment [3] the target is T1, IGF-1R. As to the kind of experiment: IGF-1 induced proliferation of MDA-MB-231 breast adenocarcinoma cells (3H-thymidine). It counts as cell-based. The arrangement: MDA-MB-231 breast adenocarcinoma cells; endogenous in cells; host or cells: MDA-MB-231. As to conditions: for EC50: read-out: EC50, in vitro cell proliferation assay; for Emax: MDA-MB-231, read-out: Emax, in vitro cell proliferation assay. Here is the method:
(§1) We also tested the effect IGF-1R antagonist peptides on IGF-1 induced proliferation in other cancer cell types (MCF-7 breast carcinoma cells, HepG2 hepatocarcinoma cells, and MDA-MB-231 breast adenocarcinoma cells). Different cancer cells were pre-incubated (45 min.) with different concentrations of peptides prior to stimulation with IGF-1 (50 ng/ml) (37° C.) for 24 hours; fetal calf serum was omitted 24 hours prior to stimulation with IGF-1 to avoid proliferative effects by other mitotic agents. ^3H-thymidine (1 μCi/ml) was then added for 24 hours, after which cells were washed three times with 5% cold TCA and lysed with 0.1N NaOH/0.1% Triton X-100. Radioactivity was measured with a scintillation counter. Experiments were repeated 3 times in duplicates (FIG. 15).
Target sequence in this assay (P08069 31-736 limits assumed): as the sequence (P08069 31-736 limits assumed) above
Target sequence in this assay (P08069 741-1367 limits assumed): as the sequence (P08069 741-1367 limits assumed) above

Experiment [4] concerns VEGFR2 (Flk-1). As to the kind of experiment: VEGF induced proliferation of microvascular endothelial cells (3H-thymidine). In kind it is cell-based, porcine. The following applies: VEGF 2 ng/ml. Here is the method: (§2) To determine the efficient and non-cytotoxic concentration of VEGF to use in the assay, a dose-response curve of VEGF was generated in two types of cells, namely microvascular endothelial cells and pulmonary artery endothelial cells (PAEC) that had been transfected with the Flk-1 gene. The proliferation was then measured in those two types of cells in the presence of peptides 2.1, 2.2 and 2.3 and of VEGF (2 ng/ml) pursuant to the incorporated tritiated thymidine method. The cells were preincubated at 37° C. with the different peptides at different concentrations. They were incubated with VEGF (2 ng/ml) for 24 hours. The cells were contacted with ^3H-Thymidine for 24 hours, washed and lysed. The radioactivity was measured with a scintillation counter.

The target of experiment [5] is T2, VEGFR2 (Flk-1) (Homo sapiens, UniProt P35968).
T2 construct: expressed in transfected cells; host or cells: pulmonary artery endothelial cells (PAEC)
As to the kind of experiment: VEGF induced proliferation of PAEC transfected with the Flk-1 gene (3H-thymidine). In kind it is cell-based. The following applies: VEGF 2 ng/ml. Here is the method: as §2

Experiment [6] deals with neovascularization in rat retinas. As to the kind of experiment: Ischemic retinopathy model. In kind it is in vivo. As to conditions: rat pups, 80% O2 then normoxia; intravitreal, 10 μM final. The protocol:
The efficiency of the selected peptides was verified in vivo in a ischemic retinopathy model, a phenomena highly dependent on VEGF activation. Rat pups were exposed to 80% O2 followed by a period of normoxia (21% O2). The peptides were injected at a final concentration of 10 μM in the vitreous body. The retinas were then retrieved, colored with the ADPase method and mounted on slides. Photographs of the retinas were taken with a microscope linked to a computer and the vascular density was evaluated with the Imagepro software.

Experiment [7] concerns the target T3, IGF-1R (Rattus norvegicus, UniProt P24062).
T3 construct: from tissue; host or cells: aorta
In words: Ex vivo IGF-1-induced vasorelaxation of rat aorta. As to conditions: IGF-1 25 ng/ml; phenylephrine pre-constriction; read-out: Emax, inhibition of ex vivo IGF-1-induced vasorelaxation of rat aorta. Here is the method: Aortas were first incubated with different concentrations of peptides and phenylephrine to induce aorta constriction. IGF-1 (25 ng/ml) was then added to induce vasorelaxation. The results are expressed relative to a control aorta not incubated with the peptides. Vascular diameter was measured using a digital image analyzer. Vascular diameter was recorded before and after topical application of pre-constricting agent. After stabilization of the preparation, the ligand (IGF-1, 25 ng/ml) was added until stable vasodilation was detected. Peptides were subsequently added at different concentrations from 10^−8 to 10^−6 M. Reversal of vasodilatation was visualized and measured as described, for example, by Hou et al. (Am. J. Physiol. Regul. Integr. Comp. Physiol. 284:R928-R935 (2003)), Hou et al. (Stroke 31:516-524; discussion 525 (2000)), and Hou et al. (Am. J. Physiol. Regul. Integr. Comp. Physiol. 281:R391-R400 (2001)). Triplicate measurements were conducted on 2 animals.

The target in experiment [8] is T1, IGF-1R. In words: IGF-1-induced proliferation of NIH3T3 cells transfected with human IGF-1R cDNA (3H-thymidine). In kind it is cell-based. Also on record: expressed in transfected cells; host or cells: NIH3T3. As to conditions: NIH3T3-IGF-1R cells; IGF-1 50 ng/ml. The protocol:
Derivatives of APG-203 and APG-206 peptides were truncated to determine peptide regions important for activity. Peptides were assayed for efficacy and potency with an ^3H-thymidine incorporation assay. In short, the ^3H-thymidine incorporation proliferation assay was performed in NIH3T3 cells transfected with human IGF-1R cDNA in presence of IGF-1 50 ng/ml and different concentrations of peptides.
Target sequence in this assay (P08069 31-1367): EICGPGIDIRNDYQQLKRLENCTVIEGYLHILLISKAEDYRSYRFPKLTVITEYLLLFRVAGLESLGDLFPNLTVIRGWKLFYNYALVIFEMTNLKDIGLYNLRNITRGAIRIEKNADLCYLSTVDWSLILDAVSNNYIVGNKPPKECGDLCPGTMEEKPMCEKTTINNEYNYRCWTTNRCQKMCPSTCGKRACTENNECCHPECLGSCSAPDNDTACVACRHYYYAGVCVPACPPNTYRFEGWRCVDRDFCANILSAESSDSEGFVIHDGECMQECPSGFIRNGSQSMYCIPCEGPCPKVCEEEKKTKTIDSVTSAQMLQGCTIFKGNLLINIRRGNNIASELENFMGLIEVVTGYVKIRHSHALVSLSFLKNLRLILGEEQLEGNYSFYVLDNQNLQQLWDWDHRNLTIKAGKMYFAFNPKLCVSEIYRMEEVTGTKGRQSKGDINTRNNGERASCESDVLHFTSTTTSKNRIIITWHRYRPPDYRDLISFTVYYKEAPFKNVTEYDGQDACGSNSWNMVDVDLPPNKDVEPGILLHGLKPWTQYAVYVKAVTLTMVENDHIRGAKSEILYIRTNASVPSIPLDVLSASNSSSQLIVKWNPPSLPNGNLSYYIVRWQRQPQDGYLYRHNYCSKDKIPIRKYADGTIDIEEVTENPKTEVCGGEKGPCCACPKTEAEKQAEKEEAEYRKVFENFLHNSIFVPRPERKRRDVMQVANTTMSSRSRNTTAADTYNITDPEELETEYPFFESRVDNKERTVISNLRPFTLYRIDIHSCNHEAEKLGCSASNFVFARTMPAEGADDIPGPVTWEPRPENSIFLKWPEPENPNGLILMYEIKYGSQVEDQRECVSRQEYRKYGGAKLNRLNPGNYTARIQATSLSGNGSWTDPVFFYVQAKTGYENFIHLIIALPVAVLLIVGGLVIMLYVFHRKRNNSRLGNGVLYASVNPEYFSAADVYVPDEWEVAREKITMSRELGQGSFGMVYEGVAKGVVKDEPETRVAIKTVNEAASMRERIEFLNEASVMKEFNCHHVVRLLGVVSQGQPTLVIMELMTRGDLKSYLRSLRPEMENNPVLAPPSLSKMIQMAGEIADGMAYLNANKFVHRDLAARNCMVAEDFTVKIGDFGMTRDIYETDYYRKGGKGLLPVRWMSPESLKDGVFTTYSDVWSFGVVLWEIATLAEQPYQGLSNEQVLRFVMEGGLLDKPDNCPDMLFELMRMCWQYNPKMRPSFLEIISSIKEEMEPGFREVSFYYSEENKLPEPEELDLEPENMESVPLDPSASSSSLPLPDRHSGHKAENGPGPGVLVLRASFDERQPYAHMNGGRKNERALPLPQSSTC

The target of experiment [9] is T1, IGF-1R. As to the kind of experiment: IGF-1-induced tyrosine autophosphorylation of IGF-1R (Western Blot). The following applies: peptides 10^−6M, 45 min; IGF-1 50 ng/ml; read-out: inhibition of IGF-1-induced phosphorylation. It counts as cell-based. The protocol:
Cells were incubated with anti-IGF-1R peptides (10^−6M) for 45 minutes and with IGF-1 at 50 ng/ml for either 15 minutes or 5 minutes. Western Blots (phosphorylated tyrosine antibody and IGF-1R antibody) were performed in non-denaturing conditions on total cell lysates (FIG. 17).
(In general: A western blot detects proteins with antibodies after separation by electrophoresis.)
Target sequence in this assay (P08069 31-1367, species assumed): as the sequence (P08069 31-1367) above

Experiment [10] concerns the target T1, IGF-1R. As to the kind of experiment: IGF-1 induced proliferation of HepG2 hepatocarcinoma cells (3H-thymidine). The arrangement: HepG2 hepatocarcinoma cells; endogenous in cells; host or cells: HepG2. As to conditions: for Emax: read-out: Emax, in vitro cell proliferation assay. It counts as cell-based. Here is the method:
as §1
Target sequence in this assay (P08069 31-736 limits assumed): as the sequence (P08069 31-736 limits assumed) above
Target sequence in this assay (P08069 741-1367 limits assumed): as the sequence (P08069 741-1367 limits assumed) above

Where [11] appears, read: A549, IGF-1 10 ng/ml or 1 ng/ml.
The mark [12] stands for this setting: MCF-7, IGF-1 50 ng/ml, read-out: Emax, in vitro cell proliferation assay.
Where [13] appears, read: MCF-7 (breast cancer) cells, Table 5, read-out: Emax.

T3 sequence (P24062 31-1370): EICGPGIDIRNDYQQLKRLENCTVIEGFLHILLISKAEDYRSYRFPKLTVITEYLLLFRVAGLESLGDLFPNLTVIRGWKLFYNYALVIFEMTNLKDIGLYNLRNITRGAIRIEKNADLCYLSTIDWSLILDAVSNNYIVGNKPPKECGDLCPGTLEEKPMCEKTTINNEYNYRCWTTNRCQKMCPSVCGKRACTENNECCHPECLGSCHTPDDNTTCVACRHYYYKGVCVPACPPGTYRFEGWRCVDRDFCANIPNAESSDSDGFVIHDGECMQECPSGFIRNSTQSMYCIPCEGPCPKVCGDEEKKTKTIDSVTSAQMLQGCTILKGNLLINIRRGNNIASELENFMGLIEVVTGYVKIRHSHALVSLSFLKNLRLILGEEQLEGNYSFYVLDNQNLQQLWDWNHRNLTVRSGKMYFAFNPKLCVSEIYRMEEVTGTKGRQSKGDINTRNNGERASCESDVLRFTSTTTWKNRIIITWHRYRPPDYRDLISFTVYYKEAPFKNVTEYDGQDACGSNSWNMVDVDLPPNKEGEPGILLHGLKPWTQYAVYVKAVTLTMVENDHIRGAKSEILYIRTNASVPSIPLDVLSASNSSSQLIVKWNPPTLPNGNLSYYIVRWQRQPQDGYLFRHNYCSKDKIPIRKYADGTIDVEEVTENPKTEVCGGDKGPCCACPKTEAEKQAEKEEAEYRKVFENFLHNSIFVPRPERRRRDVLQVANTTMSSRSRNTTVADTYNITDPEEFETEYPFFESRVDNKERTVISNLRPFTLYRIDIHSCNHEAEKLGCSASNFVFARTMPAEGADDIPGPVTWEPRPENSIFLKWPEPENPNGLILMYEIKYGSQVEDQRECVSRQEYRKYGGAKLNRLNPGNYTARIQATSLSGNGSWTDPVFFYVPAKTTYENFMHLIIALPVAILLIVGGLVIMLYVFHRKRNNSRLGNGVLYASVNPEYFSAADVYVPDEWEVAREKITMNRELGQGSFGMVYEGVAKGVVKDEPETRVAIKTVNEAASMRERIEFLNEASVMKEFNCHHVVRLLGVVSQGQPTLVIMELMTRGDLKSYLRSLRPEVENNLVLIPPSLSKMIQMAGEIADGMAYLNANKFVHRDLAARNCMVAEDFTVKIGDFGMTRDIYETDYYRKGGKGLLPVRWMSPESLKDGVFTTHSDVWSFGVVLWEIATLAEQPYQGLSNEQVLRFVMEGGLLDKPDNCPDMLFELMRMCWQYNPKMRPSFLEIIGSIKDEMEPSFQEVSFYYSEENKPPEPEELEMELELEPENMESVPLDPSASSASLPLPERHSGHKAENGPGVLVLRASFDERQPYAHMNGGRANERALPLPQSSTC

Consider `CC(C)C[C@@H](NC(=O)[C@H](N)CO)C(=O)N[C@H](Cc1ccccc1)C(=O)N[C@@H](C(=O)N1CCC[C@@H]1C(=O)N[C@H](CCCNC(=N)N)C(=O)N1CCC[C@@H]1C(=O)N[C@H](CCC(=O)O)C(=O)N[C@H](CCCNC(=N)N)C(=O)N[C@H](CCCCN)C(=O)O)C(C)C` [APG-201] (H-[dS][dL][dF][dV][dP][dR][dP][dE][dR][dK]-OH; N-terminus and C-terminus assumed), for which the EC50 amounted to 1000 nM at IGF-1R [1] and 0.1 nM at IGF-1R [3] (MB-MDA-231, IGF-1 50 ng/ml). Moreover, at IGF-1R [1] (setting [11]), the IGF-1 induced proliferation entry was “completely abrogated”. Also, the Emax at IGF-1R [2] (setting [12]) turned out to be 20%; on IGF-1R [3] (MB-MDA-231, IGF-1 50 ng/ml), 100%. In addition, at IGF-1R [3] (ER insensitive cells), the “potency in MDA-MB-231” value is “nanomolar potencies”.

As to `CC(C)C[C@@H](NC(=O)[C@H](NC(=O)[C@@H](CC(=O)O)NC(=O)[C@@H](CO)NC(=O)[C@H](N)CCC(=O)O)C(C)C)C(=O)N[C@H](Cc1c[nH]cn1)C(=O)N[C@H](Cc1ccccc1)C(=O)N[C@@H](C(=O)N[C@H](CO)C(=O)N[C@@H](C(=O)O)[C@H](C)O)[C@H](C)O` [APG-202] (H-[dE][dS][dD][dV][dL][dH][dF][dT][dS][dT]-OH; N-terminus and C-terminus assumed), the IGF-1 induced proliferation entry on IGF-1R [1] (setting [11]) is on record as “completely abrogated”. The EC50 at IGF-1R [1] (A549, IGF-1 10 ng/ml or 1 ng/ml, read-out: EC50, IGF-1 induced proliferation) was 10 nM. For the same compound, on IGF-1R [2] (setting [12]), the Emax stood at 20%. Moreover, the “EC50, in vitro cell proliferation assay” value on IGF-1R [3] (MB-MDA-231, IGF-1 50 ng/ml) is “Not active”.

With `CC(C)C[C@@H](NC(=O)[C@@H](CCCNC(=N)N)NC(=O)[C@H](NC(=O)[C@@H](CCCNC(=N)N)NC(=O)[C@@H](CCC(=O)O)NC(=O)CNC(=O)[C@H](NC(=O)[C@H](NC(=O)[C@@H](C)NC(=O)[C@H](N)CCC(=O)O)[C@H](C)O)C(C)C)C(C)C)C(=O)O` [Peptide 2.2] (H-[dE][dA][dT][dV]G[dE][dR][dV][dR][dL]-OH; N-terminus and C-terminus assumed), the VEGF induced proliferation entry with VEGFR2 (Flk-1) [4] is listed as “completely abrogated”. The EC50 on VEGFR2 (Flk-1) [5] came to 9 µM. For the same compound, the induced neovascularization result in experiment [6] is reported as “most effective inhibitor of neovascularization”.

As for ENFLHLLLA [APG-205], the Emax at IGF-1R [7] was found to be 25%; on IGF-1R [2] (setting [12]) it was 60%; at IGF-1R [3] (MB-MDA-231, IGF-1 50 ng/ml), 100%. Also, on IGF-1R [2] (IGF-1 50 ng/ml), the inhibition is at most 90%.

As for ERTVLSNL [APG-206.7], the results for the Emax on IGF-1R [8] and on IGF-1R [2] (setting [13]) were 100% and 90%, respectively.

Regarding IRKYADGTI [APG-204], the Emax at IGF-1R [7] is 25%; on IGF-1R [2] (setting [12]), 90%; on IGF-1R [3] (MB-MDA-231, IGF-1 50 ng/ml), 100%. In addition, on IGF-1R [9], the inhibition at 1 µM came to 30%. The inhibition at IGF-1R [2] (IGF-1 50 ng/ml) was at most 90%.

KERTVISNLR [APG-206]: the Emax on IGF-1R [7] turned out to be 75%; on IGF-1R [10] (HepG2, IGF-1 50 ng/ml), 100%; on IGF-1R [2] (setting [12]) it was 60%. At IGF-1R [9], the inhibition at 1 µM is above 70%. Besides, the inhibition on IGF-1R [2] (IGF-1 50 ng/ml) was at most 90%.

In the case of KERTVLS [APG-206.5, KERTVLS], the Emax worked out at 75% on IGF-1R [8] and 100% on IGF-1R [2] (setting [13]).

Take RTNASVPSI [APG-203]: the Emax at IGF-1R [7] is 50%; on IGF-1R [10] (HepG2, IGF-1 50 ng/ml) it was 100%; at IGF-1R [2] (setting [12]) it was 45%; at IGF-1R [3] (MB-MDA-231, IGF-1 50 ng/ml) it was 100%. For the same compound, the “efficacy, inhibition of HepG2 proliferation” value at IGF-1R [10] worked out at 50%. Further, the EC50 on IGF-1R [10] (HepG2, IGF-1 50 ng/ml, read-out: EC50, in vitro cell proliferation assay) was below 0.1 nM; on IGF-1R [2] (IGF-1 50 ng/ml, read-out: potency, inhibition of MCF-7 proliferation) it was 0.1 to 60 nM; at IGF-1R [3] (MB-MDA-231, IGF-1 50 ng/ml), 0.1 nM. On IGF-1R [2] (IGF-1 50 ng/ml), the inhibition is at most 90%.

For TVLSNL [APG-206.9, TVLSNL], on IGF-1R [8], the Emax was 90% and the IC50 came to 20 nM.

The term IC50 denotes the concentration that gives 50% inhibition. High values mean a need for much substance, low ones inhibition by little substance.
